Patent US11702402B2, “Small molecules that block proteasome-associated ubiquitin receptor RPN13 function and uses thereof” (DANA-FARBER CANCER INSTITUTE, INC., priority 2018, dated 2023)

Legend:
[1] = test system: 20S proteasome; assay: Proteasome activity assay in lysates of treated MM.1S cells; type: cell-based, Human; conditions: cellular extracts of MM.1S cells treated 1 μM or 10 μM for 3 hours
Procedure: (§1) MM.1S cells, which were treated with DMSO control, bortezomib, or WL40 at indicated concentration for 3 hours; protein lysates were analyzed for different proteasome activities (CT-L, chymotrypsin-like; T-L, trypsin-like; C-L, caspase-like). FIG. 20B is a bar graph showing percent proteasome activity after normalization with DMSO control (mean±SD; n=3). Recombinant 20S proteasome was incubated with DMSO, bortezomib, or WL40 for 30 minutes, followed by assessment of the above-noted proteasome activities. FIG. 20C MM.1S cells were pretreated with exemplary proteasome inhibitor MG132 (10 μM) for 1 hour, followed by addition of WL40 (400 nM) for 8 hours. […] Total protein lysates were subjected to immunoblots for Rpn13 and α-tubulin. […] FIG. 20E ANBL6.BR cells were treated with WL40 (400 nM) or RA190 (500 nM) for 16 hours; protein lysates were subjected to immunoblot analysis using anti-Rpn13 or anti-β-actin Abs.
MM.1S cells were treated with WL40 (1 μM or 10 μM) or Bortezomib (1 μM) for 3 hours; cells were then harvested and lysed in lysis buffer, followed by removal of debris by centrifugation. Total protein (25 μg) was analyzed for proteasome activity using 20S proteasome Assay Kit (Calbiochem), as previously described.^33

[2] = test system: HCT116 and HCT116-Rpn13KO cell lines; assay: HCT116 and HCT116-Rpn13KO cell viability; type: cell-based; conditions: HCT116 versus HCT116-Rpn13KO; 48 hours; Wst-1
Procedure: FIGS. 8A and 8B show HCT116 and HCT116-Rpn13KO cell lines that were treated with WL40 or WL44 at the indicated concentrations for 48 hours. Wst-1 assay was used to test cell viability.
CRISPR-Cas9 genome editing was performed to generate Rpn13-knockout (Rpn13-KO) HCT116 and MM.1S cell lines. Cells were transfected with Rpn13-CRISPR/Cas9-knockout (KO) plasmid (Santa Cruz Biotechnology, Inc., Santa Cruz, Calif., USA) using Lipofectamine 2000 (Thermo Fisher Scientific, Waltham, Mass., USA) or the cell line Nucleofector Kit V (Amaxa Biosystems, Cologne, Germany), respectively. After 48 h incubation, green fluorescent protein (GFP)-positive cells were sorted. Rpn13 KO was confirmed by both protein expression studies and DNA sequencing.

[3] = test system: MM.1S cells; assay: Annexin V/PI apoptosis assay in MM.1S cells; type: cell-based, Human; conditions: 200 nM, 16 hours
Procedure: (§2) FIGS. 22A to 22F show the mechanisms of WL40-induced MM cell death. […] MM.1S cells were treated with DMSO control or WL40 (200 nM) for 16 hours, and then analyzed for apoptosis using Annexin V/PI double staining assay (mean±SD; n=3; p<0.001). FIG. 22B is an immunoblot of MM.1S and ANBL6.BR cells, which were treated with DMSO control or WL40 (200 nM for MM.1S; 1 μM for ANBL6.BR) for 16 hours; protein lysates were then subjected to the immunoblotting using antibodies against poly ADP ribose polymerase (PARP), caspase-3, caspase-7, caspase-8, caspase-9, or β-actin. FL, full length; CF, cleaved fragment. FIG. 22C is a bar graph measuring enzymatic activity. MM.1S cells were treated with DMSO control or WL40 (200 nM) for 12 hours, followed by the measurement of caspase-3, caspase-8, or caspase-9 enzymatic activity (mean±SD; n=3; p<0.0001). FIG. 22D is an immunoblot of MM.1S and ANBL6.BR cells, which were treated with DMSO control or WL40 (200 nM for MM.1S; 1 μM for ANBL6.BR) for 16 hours; protein lysates were then subjected to the immunoblotting using specific antibodies against Cyclin-B1, Cell Division Cycle 25C (CDC25C), Cell Division Cycle 2 (CDCl2), or β-actin. […]

[4] = test system: PARP, caspase-3, caspase-7, caspase-8, caspase-9; assay: PARP/caspase immunoblot and caspase enzymatic activity; type: cell-based, Human
Procedure: as §2

[5] = test system: cyclin-B1, CDC25C, and CDCl2; assay: Cell-cycle regulatory protein immunoblot; type: cell-based, Human; conditions: MM.1S 200 nM; ANBL6.BR 1 μM; 16 hours
Procedure: as §2

[6] = target: RPN13 (Homo sapiens, UniProt Q16186); assay: Rpn13 immunoblot in ANBL6.BR cells; type: cell-based; design: endogenous in cells; host or cells: MM.1S; MM.1S-CRBN KO; RPMI-8226; ANBL6.BR; conditions: ANBL6.BR (bortezomib-resistant); 400 nM; 16 hours
RPN13, sequence (Q16186 whole entry): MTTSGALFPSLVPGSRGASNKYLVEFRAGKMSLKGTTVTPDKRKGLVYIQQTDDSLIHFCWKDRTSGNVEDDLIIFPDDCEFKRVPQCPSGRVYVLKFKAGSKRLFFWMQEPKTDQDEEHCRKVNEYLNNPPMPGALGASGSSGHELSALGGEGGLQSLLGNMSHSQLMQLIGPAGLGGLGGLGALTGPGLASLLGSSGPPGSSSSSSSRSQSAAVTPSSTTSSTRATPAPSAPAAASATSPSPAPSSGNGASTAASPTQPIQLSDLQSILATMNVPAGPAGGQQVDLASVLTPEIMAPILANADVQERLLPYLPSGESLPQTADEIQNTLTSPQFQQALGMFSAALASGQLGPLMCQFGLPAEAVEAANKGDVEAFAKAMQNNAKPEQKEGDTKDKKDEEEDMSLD
Procedure: as §1
Cellular protein extracts were prepared using RIPA lysis buffer (50 mM Tris-HCl, 150 mM NaCl, 1% NP-40, 0.5% sodium deoxycholate, and 0.1% SDS). […]
Next, the effect of WL40 on additional MM cell lines, including p53-mutated RPMI-8226 cells or bortezomib-resistant ANBL6.BR cells, was evaluated. […]

O=C1CCC(N2C(=O)c3cccc(NCCOCCOCCOCCC(=O)N[C@@H](Cc4ccccc4)C(=O)N4C/C(=C\c5ccc(Cl)c(Cl)c5)C(=O)/C(=C/c5ccc(Cl)c(Cl)c5)C4)c3C2=O)C(=O)N1 (stereo partly shown) [WL40]
20S proteasomal activities (chymotrypsin-like, trypsin-like, caspase-like) [1]: does not inhibit 20S proteasomal activities | RPN13 dependence of cytotoxicity [2]: RPN13-dependent | apoptosis (Annexin V/PI) [3]: increase in early- (Annexin V^+/PI^−) and late-stage (Annexin V^+/PI^+) apoptosis | PARP cleavage (immunoblot) ([4]; 200 nM for MM.1S, 1 μM for ANBL6.BR, 16 hours): proteolytic cleavage of Poly (ADP) ribose polymerase (PARP) | caspase activation ([4]; MM.1S 200 nM, immunoblot 16 hours, enzymatic activity 12 hours): activation of caspase-3, caspase-7, caspase-8 and caspase-9 | levels of cell-cycle regulatory proteins [5]: reduction in the levels of cell-cycle regulatory proteins | Rpn13 levels (immunoblot) [6]: induced RPN13 degradation
